# Test results: patent publication US20210275506A1, “COMPOSITIONS AND METHODS OF TREATMENT” (Blueberry Therapeutics Limited, priority 2018, published 2021)
# Like-named read-outs stand apart in the source and are kept apart here.
# Assays:
# [1] = Solubility of the APIs in ethanol and water vehicles; format: physicochemical; details: for Solubility in words: water and ethanol; for solubility: water and ethanol vehicles, read-out: Solubility, 10 mg/ml API solution
# [2] = test system: P. acnes; assay: Bacterial lawn assay with soaked filter discs; format: cell-based, Pseudomonas acnes; details: Nanocin 1 mg/ml, Diclofenac 0.1-1 mg/ml
# Description: The API's formulated with Nanocin were tested on 2 bacterial strains associated with acne. Staphylococcus epidermidis (S. epidermidis) and the anaerobic Pseudomonas acnes (P. acnes). Two types of assay were performed: (i) a bacterial lawn assay where the formulation was pipetted onto a Whatman filter disc and then added to a dried lawn of the bacteria growing on agar; and also, (ii) a liquid minimum inhibitory concentration (MIC) assay, where the bacteria were grown in 96 well plates. The bacterial lawn assay was much faster and easier to grow with the S. epidermidis as it was under aerobic conditions. The P. acnes growth on the agar plates was slower and difficult to capture on a camera (although possible to view by eye; see FIGS. 5c and 5d).
# [3] = test system: IL-8; assay: Inflammation assay: IL-8 release of LPS-stimulated THP-1 cells; format: cell-based, human; details: for potency at inhibiting the LPS inflammatory response, in words / MIC for inhibiting the LPS inflammatory response (IL-8): dose range 0-30 ug/ml; for MIC for inhibiting the LPS inflammatory response (IL-8) / IL-8 release, in words: 24 h; for IL-8 release, in words: 30 ug/ml API, 100 ug/ml Nanocin
# [4] = test system: TNF-α; assay: Inflammation assay: TNF-α release of LPS-stimulated THP-1 cells; format: cell-based, human; details: final concentration 1 or 0.1 ug/ml
# Description: The release of cytokines (looking particularly at those associated with acne inflammation-TNF-α, IL-8, IL-1α) after stimulation with lipopolysaccharide (LPS) is a valid model system to test compounds for potential anti-inflammatory effects (Reference 1)
# To standardise conditions for the assay, a LPS dose (0-1 ug/ml) was investigated on TNF-α, IL-8 and IL-1α response, over a time period from 2,4 and 24 hours.
# A 1:1 mg/ml (Nanocin:API) was initially formulated in 20% ethanol and the stock formulation was then diluted down with serum free media and tested at a final concentration of 1 or 0.1 ug/ml.
# [5] = test system: P. acnes; assay: Liquid MIC assay in 96 well plates; format: cell-based, Pseudomonas acnes; details: Diclofenac 50-500 ug/ml
# Description: (§1) The API's formulated with Nanocin were tested on 2 bacterial strains associated with acne. Staphylococcus epidermidis (S. epidermidis) and the anaerobic Pseudomonas acnes (P. acnes). Two types of assay were performed: (i) a bacterial lawn assay where the formulation was pipetted onto a Whatman filter disc and then added to a dried lawn of the bacteria growing on agar; and also, (ii) a liquid minimum inhibitory concentration (MIC) assay, where the bacteria were grown in 96 well plates.
# (§2) However, results from both were reliable.
# [6] = In vitro permeation, Franz cell, ToF-SIMS of cross sections and tape strips; format: in vitro ADME, pig; details: for permeation, key findings: all methods
# [7] = test system: S. epidermidis; assay: Liquid MIC assay in 96 well plates; format: cell-based, Staphylococcus epidermidis; details: Diclofenac 50-500 ug/ml
# Description: as §1, §2
# [8] = DLS particle size (z-average) and polydispersity index of API:Nanocin formulations; format: physicochemical; parameters: z-average: unit not given here
# [9] = aqueous with cosolvent or surfactant or cyclodextrin, 10% ethanol
# [10] = aqueous with cosolvent or surfactant or cyclodextrin, 15% ethanol
# [11] = aqueous with cosolvent or surfactant or cyclodextrin, 20% ethanol
# [12] = aqueous with cosolvent or surfactant or cyclodextrin, 30% ethanol
# [13] = aqueous with cosolvent or surfactant or cyclodextrin, 5% ethanol
Solubility in words [1],SMILES,"solubility [1, 9]","solubility [1, 10]","solubility [1, 11]","solubility [1, 12]",solubility ([1]; water),"potency at inhibiting the LPS inflammatory response, in words [3]",MIC for inhibiting the LPS inflammatory response (IL-8) [3],PDI ([8]; 0.33:1 mg/ml API:N),PDI ([8]; 1:1 mg/ml API:N),"solubility [1, 13]","IL-8 release, in words [3]","permeation, key findings [6]",z-average ([8]; 0.33:1 mg/ml API:N),z-average ([8]; 1:1 mg/ml API:N),further results
,C=CC[C@@H]1/C=C(\C)C[C@H](C)C[C@H](OC)[C@H]2O[C@@](O)(C(=O)C(=O)N3CCCC[C@H]3C(=O)O[C@H](/C(C)=C/[C@@H]3CC[C@@H](O)[C@H](OC)C3)[C@H](C)[C@@H](O)CC1=O)[C@H](C)C[C@@H]2OC [Tacrolimus],,> 10000 µg/mL,> 10000 µg/mL,> 10000 µg/mL,< 10000 µg/mL,more potent than Ibuprofen,0.3 µg/mL,0.332,1,< 10000 µg/mL,more effective anti-inflammatory,no evidence,41.54,277.1,"Solubility, 10 mg/ml API solution ([1]; 10% ethanol): x(better)"
better solubility in water and ethanol,CC(C)Cc1ccc(C(C)C(=O)O)cc1 (centres unmarked) [Ibuprofen],,,,,,,,0.289,0.34,,very little effect on reducing the IL-8 release,no evidence,194.1,311.9,
insolubility,Cc1ccc(-c2cc(C(F)(F)F)nn2-c2ccc(S(N)(=O)=O)cc2)cc1 [Celecoxib],< 10000 µg/mL,< 10000 µg/mL,< 10000 µg/mL,< 10000 µg/mL,< 10000 µg/mL,,,,,< 10000 µg/mL,,,,,
,CO[C@H]1C[C@@H]2CC[C@@H](C)[C@@](O)(O2)C(=O)C(=O)N2CCCC[C@H]2C(=O)O[C@H]([C@H](C)C[C@@H]2CC[C@@H](O)[C@H](OC)C2)CC(=O)[C@H](C)/C=C(\C)[C@@H](O)[C@@H](OC)C(=O)[C@H](C)C[C@H](C)/C=C/C=C/C=C/1C [Rapamycin],< 10000 µg/mL,< 10000 µg/mL,< 10000 µg/mL,> 10000 µg/mL,< 10000 µg/mL,,1 µg/mL,,,< 10000 µg/mL,,no evidence,,,

SMILES,Solubility in words [1],"solubility [1, 9]","solubility [1, 10]","solubility [1, 11]","solubility [1, 12]",solubility ([1]; water),"potency at inhibiting the LPS inflammatory response, in words [3]",MIC for inhibiting the LPS inflammatory response (IL-8) [3],PDI ([8]; 0.33:1 mg/ml API:N),PDI ([8]; 1:1 mg/ml API:N),"solubility [1, 13]","IL-8 release, in words [3]","permeation, key findings [6]",z-average ([8]; 0.33:1 mg/ml API:N),z-average ([8]; 1:1 mg/ml API:N),further results
O=C(O)Cc1ccccc1Nc1c(Cl)cccc1Cl [Diclofenac],most soluble,> 10000 µg/mL,> 10000 µg/mL,> 10000 µg/mL,> 10000 µg/mL,> 10000 µg/mL,more potent than Ibuprofen,1 µg/mL,0.251,0.817,,,,,,"inhibition of bacterial growth (halo around disc) [2]: not seen; LPS-stimulated IL-8 response, in words ([3]; final concentration 1 or 0.1 ug/ml): reduced the LPS-stimulated inflammatory response; LPS-stimulated TNF-α response, in words [4]: reduced the LPS-stimulated inflammatory response; bacterial growth inhibition / anti-bacterial activity of API alone [5]: did not exhibit any bacterial growth inhibition; intensity of diclofenac salt ion markers in stratum corneum ([6]; ToF-SIMS cross sections, 1 mg/ml Diclofenac): slight elevation; diclofenac salt ion markers in tape strips 1-3 (permeation into top layers of stratum corneum) ([6]; ToF-SIMS tape strips, 1 mg/ml Diclofenac): does not and none; bacterial growth inhibition by API alone [7]: did not exhibit any bacterial growth inhibition"
